Laboratory results: paper PMC5945292 (Biochemistry, 2013)

Legend:
Assay type in all cases: binding
cytochrome P450 BM-3 [1] = target: cytochrome P450 BM-3 (Priestia megaterium, UniProt P14779, R48Q); test: spectral
cytochrome P450 BM-3 [2] = target: cytochrome P450 BM-3 (Priestia megaterium, UniProt P14779, R48K); test: spectral
cytochrome P450 BM-3 [3] = target: T1, cytochrome P450 BM-3 (Priestia megaterium, UniProt P14779); test: crystal structure at […] Å
T1 sequence (P14779 1-1049): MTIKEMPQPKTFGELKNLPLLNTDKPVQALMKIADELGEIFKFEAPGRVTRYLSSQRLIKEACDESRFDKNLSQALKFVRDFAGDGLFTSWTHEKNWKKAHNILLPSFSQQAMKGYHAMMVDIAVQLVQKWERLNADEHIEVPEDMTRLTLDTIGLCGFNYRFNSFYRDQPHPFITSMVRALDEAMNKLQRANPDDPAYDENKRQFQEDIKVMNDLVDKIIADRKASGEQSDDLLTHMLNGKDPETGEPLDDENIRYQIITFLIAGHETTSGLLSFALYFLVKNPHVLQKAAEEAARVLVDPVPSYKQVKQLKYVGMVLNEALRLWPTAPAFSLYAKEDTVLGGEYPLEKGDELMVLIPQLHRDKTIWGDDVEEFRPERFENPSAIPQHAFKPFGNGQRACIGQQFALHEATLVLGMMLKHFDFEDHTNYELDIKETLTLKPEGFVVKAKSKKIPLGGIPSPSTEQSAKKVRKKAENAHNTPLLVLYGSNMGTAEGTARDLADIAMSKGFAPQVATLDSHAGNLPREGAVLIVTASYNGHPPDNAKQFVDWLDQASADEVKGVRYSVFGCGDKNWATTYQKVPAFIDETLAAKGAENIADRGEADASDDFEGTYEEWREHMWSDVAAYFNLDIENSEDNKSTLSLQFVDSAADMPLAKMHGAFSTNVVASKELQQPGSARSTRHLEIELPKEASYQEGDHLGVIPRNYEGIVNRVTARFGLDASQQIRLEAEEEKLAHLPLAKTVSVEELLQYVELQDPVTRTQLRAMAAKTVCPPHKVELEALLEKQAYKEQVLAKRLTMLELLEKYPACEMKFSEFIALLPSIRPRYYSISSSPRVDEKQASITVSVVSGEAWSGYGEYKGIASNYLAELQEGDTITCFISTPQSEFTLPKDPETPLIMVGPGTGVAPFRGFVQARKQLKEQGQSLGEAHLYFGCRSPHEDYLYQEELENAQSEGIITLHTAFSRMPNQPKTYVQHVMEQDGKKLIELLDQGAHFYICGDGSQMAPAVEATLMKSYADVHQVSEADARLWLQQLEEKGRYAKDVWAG

Chain of cytochrome P450 BM-3 (Priestia megaterium, UniProt P14779, R48Q) (P14779 whole entry R48Q): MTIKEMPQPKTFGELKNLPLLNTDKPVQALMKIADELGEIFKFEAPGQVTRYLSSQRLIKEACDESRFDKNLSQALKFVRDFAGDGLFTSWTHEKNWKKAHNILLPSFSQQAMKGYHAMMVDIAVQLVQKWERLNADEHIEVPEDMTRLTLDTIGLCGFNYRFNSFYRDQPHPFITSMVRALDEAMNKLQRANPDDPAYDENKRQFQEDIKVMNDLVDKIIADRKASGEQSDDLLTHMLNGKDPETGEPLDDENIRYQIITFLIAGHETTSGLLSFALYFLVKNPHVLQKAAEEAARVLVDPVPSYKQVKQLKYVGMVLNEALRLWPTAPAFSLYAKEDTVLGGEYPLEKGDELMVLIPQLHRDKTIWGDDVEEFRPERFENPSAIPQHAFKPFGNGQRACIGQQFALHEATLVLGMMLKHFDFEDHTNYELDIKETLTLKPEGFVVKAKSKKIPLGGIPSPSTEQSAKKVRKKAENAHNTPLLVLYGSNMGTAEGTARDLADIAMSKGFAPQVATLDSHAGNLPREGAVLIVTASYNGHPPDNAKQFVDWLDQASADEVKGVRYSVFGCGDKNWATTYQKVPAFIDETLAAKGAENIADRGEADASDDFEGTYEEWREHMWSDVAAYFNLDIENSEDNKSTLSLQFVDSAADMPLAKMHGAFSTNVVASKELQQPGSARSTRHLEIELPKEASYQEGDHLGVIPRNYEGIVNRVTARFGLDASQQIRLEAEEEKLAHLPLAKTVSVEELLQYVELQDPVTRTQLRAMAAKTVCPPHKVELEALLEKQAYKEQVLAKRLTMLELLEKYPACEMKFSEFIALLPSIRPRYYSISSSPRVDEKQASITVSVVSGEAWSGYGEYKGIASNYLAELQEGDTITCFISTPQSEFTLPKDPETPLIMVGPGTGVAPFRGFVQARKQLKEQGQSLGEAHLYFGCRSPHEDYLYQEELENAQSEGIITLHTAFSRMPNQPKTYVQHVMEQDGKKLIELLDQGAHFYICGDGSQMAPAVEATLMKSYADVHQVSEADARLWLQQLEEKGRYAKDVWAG
Chain of cytochrome P450 BM-3 (Priestia megaterium, UniProt P14779, R48K) (P14779 whole entry R48K): as the sequence (P14779 whole entry R48Q) above, with Q48K counted along it

Compound: CCCCCCCCCCCCCCCC(=O)NCC(=O)O [NPG, N-palmitoylglycine]
- Kd (cytochrome P450 BM-3 [1]): 7000 ± 700 nM
- Kd (cytochrome P450 BM-3 [2]): 1200 ± 100 nM
- Kd (cytochrome P450 BM-3 [3]): 370 ± 50 nM
